Laboratory results published in patent publication US12370143B2, “Compound or salt thereof and lipid particles” (FUJIFILM Corporation, priority 2018, dated 2025).

Legend:
[1] = Particle size of nucleic acid lipid particles (Luc2-siRNA); type: physicochemical; settings: compound/DSPC/cholesterol/DMG-PEG2000 50/10/38.5/1.5
Experimental: By using the dispersion liquid of lipid particles as it was, the particle size of the lipid particles was measured using a zeta potential/particle size measurement system ELS-Z2 (Otsuka Electronics Co., Ltd.).
(§1) The compounds described in Table 2, L-α-distearoylphosphatidylcholine (trade name: COATSOME® MC-8080; NOF corporation), cholesterol (trade name: Choesterol HP; NIPPON FINE CHEMICAL CO., LTD.), and 1,2-dimyristoyl-rac-glycero-3-(methylpolyoxyethylene 2000) (hereinafter, called DMG-PEG2000) (trade name: SUNBRIGHT® GM-020; NOF corporation) were dissolved in ethanol at a molar ratio of 50/10/38.5/1.5 such that the total lipid concentration became 20 mmol/L, thereby obtaining an oil phase.
(§2) An aqueous nucleic acid solution obtained by dissolving 5 mg of Luc2-siRNA having the sequence described in Biomacromolecules (2013) 14, p. 3905 in 1 mL of sterile water was diluted with 10 mmol/L acetate buffer having a pH 4 such that the nucleic acid concentration became 19.7 μmol/L, thereby obtaining a water phase. Then, the water phase and the oil phase were mixed together by a micromixer (see JP5288254B) using a syringe pump such that the volume ratio of water phase:oil phase became 3:1 (final ratio of siRNA/lipid=339 (mol/mol)), and the mixed solution was diluted 2× with PBS, thereby obtaining a dispersion liquid of nucleic acid lipid particles. The dispersion liquid was dialyzed (Slide-A-Lyzer G2, MWCO: 10 kD, Thermo Fisher Scientific) using a phosphate buffered saline such that ethanol was removed, thereby obtaining nucleic acid lipid particles.
The particle size of the nucleic acid lipid particles was measured by the same method as that in <Preparation of lipid particles>.

[2] = Encapsulation rate of siRNA in nucleic acid lipid particles (Luc2-siRNA); type: physicochemical; settings: compound/DSPC/cholesterol/DMG-PEG2000 50/10/38.5/1.5
Experimental: as §1, §2
A 3 mol/L aqueous sodium acetate solution (30 μL) and 9 μL of glycogen were added to 60 μL of the lipid particles retaining nucleic acids, and then 1.5 mL of ethanol was added thereto such that only the nucleic acids were precipitated while the lipid was dissolved. Then, the supernatant was removed by centrifugation. After the precipitates were air-dried for 15 minutes or longer, water was added thereto such that the precipitates were redissolved, and the concentration thereof was measured using Nanodrop NF1000 (Thermo Fisher Scientific), thereby quantifying the total nucleic acid concentration.
The nucleic acid concentration was quantified using a Quant-iT RiboGreen RNA Assay Kit (Thermo Fisher Scientific) according to the protocol. First, a 20×TE buffer included in the above kit was diluted with water, thereby obtaining a 1×TE buffer. TE represents Tris/EDTA (ethylenediaminetetraacetic acid). In order to quantify only the nucleic acid in the outer water phase, the dispersion liquid of lipid particles retaining nucleic acids was diluted 10,000× with the 1×TE buffer.
The 10,000× diluted dispersion liquid of lipid particles (100 μL) was put in a 96-well plate, then 100 μL of a RiboGreen reagent (reagent included in the Quanti-iT Ribogreen RNA Assay Kit described above) diluted 2000× with the 1×TE buffer was added to a sample, and fluorescence (excitation wavelength: 485 nm, fluorescence wavelength: 535 nm) was measured using a plate reader Infinit EF200 (TECAN), thereby quantifying the nucleic acid concentration in the outer water phase.
By using the total nucleic acid concentration obtained through the above steps and the quantified nucleic acid concentration in the outer water phase, the nucleic acid encapsulation rate of the nucleic acid lipid particles was calculated according to the following Equation. Nucleic acid encapsulation rate (%)=(total nucleic acid concentration−nucleic acid concentration in outer water phase)/total nucleic acid concentration×100 The results are shown in Table 2.

Compound | Particle size (nm) [1] | Nucleic acid encapsulation rate [2]
CCCCCCC(CCCC)COC(=O)CCCCCCCCC(CCCCCC)OC(=O)OCCN(CCO)CCCN(CC)CC (stereo not shown) [Example 90, 2-Butyloctyl 3-ethyl-13-hexyl-7-(2-hydroxyethyl)-11-oxo-10,12-dioxa-3,7-diazadocosan-22-oate] | 169.3 nm | 60%
CCCCCCCCC(CCCCCC)COC(=O)CCCC(CCCCCC)OC(=O)OCCN(CC)CCN(CC)CC (stereo not shown) [Example 82, 2-Hexyldecyl 3,6-diethyl-12-hexyl-10-oxo-9,11-dioxa-3,6-diazahexadecan-16-oate] | 77 nm | 78%
CCCCCCCCC1CC1CCCCCCCC(=O)OCCCCCCC(CCCCCCOC(=O)CCCCCCCC1CC1CCCCCCCC)OC(=O)OCCN(CC)CCN(CC)CC (stereo not shown) [Example 57] | 77.9 nm | 79%
CCCCC/C=C\C/C=C\CCCCCCCCN(CCCCCCCC/C=C\C/C=C\CCCCC)C(=O)OCCN(CC)CCN1CCOCC1 [Example 6, 2-(Ethyl(2-morpholinoethyl)amino)ethyl di((9Z,12Z)-octadeca-9,12-dien-1-yl)carbamate] | 113.5 nm | 78%
CCCCCCCCC(CCCCCC)COC(=O)CCCCCCCCC(CCCCC)OC(=O)OCCN(CCO)CCN(CC)CC (stereo not shown) [Example 131, 2-Hexyldecyl 3-ethyl-6-(2-hydroxyethyl)-10-oxo-12-pentyl-9,11-dioxa-3,6-diazahenicosan-21-oate] | 291 nm | 41%
CCCCC/C=C\C/C=C\CCCCCCCCC(CCCCCCCC/C=C\C/C=C\CCCCC)OC(=O)OCCN(CCN(C)C)C1CCCCC1 [Example 32, 2-(Cyclohexyl(2-(dimethylamino)ethyl)amino)ethyl((6Z,9Z,28Z,31Z)-heptatriaconta-6,9,28,31-tetraen-19-yl)carbonate] | 71.6 nm | 78%
CCCCCCCC/C=C\CCCCCCCCN(CCCCCCCCC)C(=O)OCCN(C)CCN(C)C [Example 15, 2-((2-(Dimethylamino)ethyl)(methyl)amino)ethyl(Z)-nonyl(octadec-9-en-1-yl)carbamate] | 122.8 nm | 83%
CCCCCCC(CCCC)COC(=O)CCCCCCCCC(CCCCCC)OC(=O)OCCN(CCO)CCN(CC)CC (stereo not shown) [Example 85, 2-Butyloctyl 3-ethyl-12-hexyl-6-(2-hydroxyethyl)-10-oxo-9,11-dioxa-3,6-diazahenicosan-21-oate] | 246.6 nm | 86%
CCCCCCC(CCCC)COC(=O)CCCCCCC(CCCCCC)OC(=O)OCCN(CCN(CC)CC)C(C)C (stereo not shown) [Example 92, 2-Butyloctyl 3-ethyl-12-hexyl-6-isopropyl-10-oxo-9,11-dioxa-3,6-diazanonadecan-19-oate] | 90.5 nm | 73%
CCCCC/C=C\C/C=C\CCCCCCCCN(CCCCCCCC/C=C\C/C=C\CCCCC)C(=O)OCCN(C)CCCN(C)C [Example 8, 2-((3-(Dimethylamino)propyl)(methyl)amino)ethyl di((9Z,12Z)-octadeca-9,12-dien-1-yl)carbamate] | 81.4 nm | 83%
CCCCCCCCC(CCCCCC)COC(=O)CCCCC(CCCCCC)OC(=O)OCCN(CCN(CC)CC)C(C)C (stereo not shown) [Example 96, 2-Hexyldecyl 3-ethyl-12-hexyl-6-isopropyl-10-oxo-9,11-dioxa-3,6-diazaheptadecan-17-oate] | 72.9 nm | 88%
